Measured values taken from ChEMBL document CHEMBL4808172, “Structure-Activity Relationship of Heterocyclic P2Y14 Receptor Antagonists: Removal of the Zwitterionic Character with Piperidine Bioisosteres” (J Med Chem, 2021).
pIC50, pKi: −log10 of the molar value. “And” between values parts separate entries of the source, which are not always exact repeats. Equal entries are not always repeated. The source made the active and inactive calls. No cut-off for these calls is given here.

How the values were obtained:
[1] = Stability of compound in stimulated gastric fluid assessed as half life; assay type: ADME; conditions: simulated gi fluid
[2] = Stability in rat plasma assessed as half life; assay type: ADME, cell-free
[3] = Clearance in Wistar rat at 10 mg/kg, ip measured upto 24 hrs by HPLC-MS/MS method; assay type: ADME, organism-based; conditions: in vivo
[4] = target: Sigma intracellular receptor 2 (Homo sapiens, UniProt Q5BJF2); assay: Binding affinity to sigma 2 receptor (unknown origin)
Chain of Sigma intracellular receptor 2 (Q5BJF2 whole entry): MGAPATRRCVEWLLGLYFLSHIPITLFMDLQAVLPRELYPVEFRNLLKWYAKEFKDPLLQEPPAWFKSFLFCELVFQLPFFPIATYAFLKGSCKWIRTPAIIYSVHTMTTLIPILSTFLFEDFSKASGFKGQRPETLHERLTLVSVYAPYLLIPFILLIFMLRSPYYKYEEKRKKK

[5] = test system: Mus musculus; assay: Reversal of CCI-induced mechano-allodynia in mouse model of neuropathic pain at 10 umol/kg, ip after 2 hrs; assay type: functional, organism-based; conditions: dose 10.0 µmol/kg
[6] = Elimination rate constant in Wistar rat at 10 mg/kg, ip measured upto 24 hrs by HPLC-MS/MS method; assay type: ADME, organism-based; conditions: in vivo
[7] = test system: Mus musculus; assay: Reversal of CCI-induced mechano-allodynia in mouse model of neuropathic pain at 10 umol/kg, ip measured after 3 to 5 hrs; assay type: functional, organism-based; conditions: dose 10.0 µmol/kg, time 3-5 hrs
[8] = Elimination rate constant in Wistar rat at 1 mg/kg, ip measured upto 24 hrs by HPLC-MS/MS method; assay type: ADME, organism-based; conditions: in vivo
[9] = target: Translocator protein (Homo sapiens, UniProt P30536); assay: Binding affinity to TSPO (unknown origin)
Chain of Translocator protein (P30536 whole entry): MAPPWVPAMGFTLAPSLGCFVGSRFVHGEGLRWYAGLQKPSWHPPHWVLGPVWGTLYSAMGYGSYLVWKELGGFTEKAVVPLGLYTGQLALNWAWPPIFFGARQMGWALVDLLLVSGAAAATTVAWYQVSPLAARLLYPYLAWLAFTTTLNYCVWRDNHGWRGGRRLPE

[10] = test system: HepG2; assay: Cytotoxicity against human HepG2 cells; assay type: cell-based
[11] = AUC (0 to infinity) in Wistar rat at 1 mg/kg, ip measured upto 24 hrs by HPLC-MS/MS method; assay type: ADME, organism-based; parameters: route intraperitoneal, dose 1 mg/kg, time <=24; conditions: in vivo
[12] = Toxicity in mouse at 10 umol/kg, ip; conditions: in vivo, dose 10 µmol/kg
[13] = Stability of compound in stimulated intestinal fluid assessed as half life; assay type: ADME; conditions: simulated gi fluid
[14] = Aqueous solubility of compound at pH 7.4; assay type: physicochemical; conditions: buffer
[15] = Microsomal stability in rat liver microsomes assessed as half life; assay type: ADME, Microsome
[16] = Bioavailability in Wistar rat at 3 mg/kg, ip measured upto 24 hrs by HPLC-MS/MS method; assay type: ADME, organism-based; conditions: in vivo
[17] = Stability in mouse plasma assessed as half life; assay type: ADME, cell-free
[18] = Microsomal stability in mouse liver microsomes assessed as half life; assay type: ADME, Microsome
[19] = Clearance in Wistar rat at 1 mg/kg, ip measured upto 24 hrs by HPLC-MS/MS method; assay type: ADME, organism-based; conditions: in vivo
[20] = Elimination rate constant in Wistar rat at 3 mg/kg, ip measured upto 24 hrs by HPLC-MS/MS method; assay type: ADME, organism-based; conditions: in vivo
[21] = Microsomal stability in human liver microsomes assessed as half life; assay type: ADME, Microsome
[22] = Bioavailability in Wistar rat at 10 mg/kg, ip measured upto 24 hrs by HPLC-MS/MS method; assay type: ADME, organism-based; conditions: in vivo
[23] = target: Sigma non-opioid intracellular receptor 1 (Homo sapiens, UniProt Q99720); assay: Binding affinity to sigma 1 receptor (unknown origin)
Chain of Sigma non-opioid intracellular receptor 1 (Q99720 whole entry): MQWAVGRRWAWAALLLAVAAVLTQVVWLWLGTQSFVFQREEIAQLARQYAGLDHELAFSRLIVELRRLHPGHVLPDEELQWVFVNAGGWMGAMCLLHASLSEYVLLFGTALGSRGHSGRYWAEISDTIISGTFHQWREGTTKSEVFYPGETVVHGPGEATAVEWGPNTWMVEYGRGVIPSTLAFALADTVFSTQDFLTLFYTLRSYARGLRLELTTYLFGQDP

[24] = Bioavailability in Wistar rat at 0.5 mg/kg, iv measured upto 24 hrs by HPLC-MS/MS method; assay type: ADME, organism-based; conditions: in vivo
[25] = Bioavailability in Wistar rat at 1 mg/kg, ip measured upto 24 hrs by HPLC-MS/MS method; assay type: ADME, organism-based; conditions: in vivo
[26] = Clearance in Wistar rat at 3 mg/kg, ip measured upto 24 hrs by HPLC-MS/MS method; assay type: ADME, organism-based; conditions: in vivo
[27] = Elimination rate constant in Wistar rat at 0.5 mg/kg, iv measured upto 24 hrs by HPLC-MS/MS method; assay type: ADME, organism-based; conditions: in vivo

Structure (SMILES): O=C(O)c1cc(-c2ccc(-c3cc(CO)on3)cc2)c2ccc(-c3ccc(C(F)(F)F)cc3)cc2c1
- t1/2 [1]: 2.68 h
- t1/2 [2]: > 4 h
- CL/F [3]: 33.8 mL/min/kg
- pKi [4]: 5.32
- Activity [5]: inactive
- k el at 24 h [6]: 6.47e-05 s⁻¹
- Activity [7]: inactive
- k el at 24 h [8]: 2.67e-05 s⁻¹
- pKi [9]: 5.33
- pIC50 [10]: 5.07
- AUC [11]: 700 ng·h/mL
- Activity [12]: Non-Toxic
- t1/2 [13]: > 4 h
- solubility [14]: 2.43 ug ml-1 and 4.96 uM
- t1/2 [15]: 0.795 h
- F [16]: 147%
- t1/2 [17]: > 4 h
- t1/2 [18]: > 4 h
- CL/F [19]: 23.8 mL/min/kg
- k el at 24 h [20]: 4.11e-05 s⁻¹
- t1/2 [21]: > 4 h
- F [22]: 105%
- pKi [23]: 5.57
- F [24]: 100%
- F [25]: 139%
- CL/F [26]: 23.7 mL/min/kg
- k el at 24 h [27]: 0.000281 s⁻¹
